Source: US4318916A, “Antibiotic PS-5 and derivatives having β-lactamase inhibitory activity and production thereof” (Sanraku-Ocean Co., Ltd., priority 1977, dated 1982)
Values after ≈ are worked out from the molar mass of the structure shown.

How the values were obtained:
[1] = tested on: Staphylococcus aureus Smith; experiment: Therapeutic activity of antibiotic PS-5 sodium salt in infected mice; format: in vivo; settings: mice infected with pathogenic Gram-positive bacteria
Description: The therapeutic activity of the antibiotic PS-5 sodium salt was studied by treating mice intraperitoneally infected with 5×10^5 cells/mouse of Staphylococcus aureus Smith. Soon after the infection, an aqueous solution of the antibiotic PS-5 sodium salt was subcutaneously injected.

[2] = Solubility of antibiotic PS-5; format: physicochemical
[3] = tested on: Proteus vulgaris P-5; experiment: Potentiation disc assay with cephaloridine (Table 10); format: cell-based; settings: Proteus vulgaris P-5; for Inhibition zone With CER: 50 μg/ml cephaloridine in agar
Description: (§1) (A) Ten milliliters of molten nutrient agar containing 50 μg/ml of penicillin G or cephaloridine, 0.8% of Kyokuto Nutrient Broth Powder and 1.0% of Difco Bacto-Agar (pH 7.0) were seeded with the beta-lactam-resistant, beta-lactamase-producing microorganisms indicated in Tables 9 and 10, and poured in a 9-cm Petri dish to provide the bio-assay agar plate. On this assay plate, 8-mm pulp discs containing 25 μl each of antibiotic PS-5 solutions at the indicated concentrations were placed and incubated at 35° C. for 18 hours before reading the inhibition zones. The control assay plate was similarly prepared without penicillin G nor cephaloridine. As reference antibiotics, penicillin G, ampicillin, oxacillin and cefazolin were disc-assayed under the same conditions.

[4] = tested on: Serratia marcescens; experiment: as above; format: cell-based; settings: for Inhibition zone With CER: 50 μg/ml cephaloridine in agar
Description: as §1

[5] = tested on: Enterobacter sp. E-18; experiment: as above; format: cell-based; settings: for Inhibition zone With CER: 50 μg/ml cephaloridine in agar
Description: as §1

[6] = tested on: Citrobacter freundii E-9; experiment: as above; format: cell-based; settings: for Inhibition zone With CER: 50 μg/ml cephaloridine in agar
Description: as §1

[7] = pH and heat stability of antibiotic PS-5 in aqueous solution; format: physicochemical; settings: phosphate buffer, yellowish brown powder of Example 5
Description: Phosphate buffer solutions of the indicated pH's were made by adjusting M/15 dipotassium phosphate to a desired pH with 5 N NaOH or 5 N phosphoric acid. To 1 milliliter of the antibiotic PS-5 solution, 1 milliliter of the phosphate buffer was added and, if necessary, the pH value was readjusted to the initial value. The antibiotic PS-5 solutions with varied pH's were kept at 60° C. for 30 minutes in a water bath, cooled in running water and neutralized to pH 7.0 with a small amount of 5 N NaOH or 5 N phosphoric acid. The control tube containing the antibiotic PS-5 solution of pH 7.0 was put in an ice bath for 30 minutes. The remaining antimicrobial activity was determined as described above, utilizing Comamonas terrigena B-996 as the assay microorganism. The results shown in the following table were calculated as percent of the control: […]

[8] = tested on: Enterobacter cloacae E-16; experiment: MIC by broth dilution (Table 13); format: cell-based; settings: E16, 20 h
Description: (§2) The MIC (minimum inhibitory concentration) values of the compound were determined on various pathogenic microorganisms including several resistant strains, utilizing the broth dilution method in BRAIN HEART INFUSION BROTH `Eiken` (EIKEN CHEMICAL CO., LTD.).
(§3) The results were read after incubation at 35° C. for 20 hours. The minimum inhibitory concentration (MIC) values means the lowest concentration unit of the tritylation product of the antibiotic PS-5 was no growth of the corresponding microorganism was observed under the above described conditions. As the control antibiotics,the solutions of ampicillin and cephaloridine were prepared in BRAIN HEART INFUSION BROTH `Eiken` (pH 7.0) at a concentration of 100 μg/ml and treated same as the test compound of the present invention.

[9] = tested on: Enterobacter aerogenes E-19; experiment: MIC by broth dilution (Table 13); format: cell-based; settings: Klebsiella aerogenes, E19, 20 h
Description: as §2, §3

[10] = tested on: Serratia marcescens S-18; experiment: MIC by broth dilution (Table 13); format: cell-based; settings: S18, 20 h
Description: as §2, §3

[11] = tested on: Comamonas terrigena B-996; experiment: Disc bio-assay of antimicrobial activity, cephaloridine equivalent units; format: cell-based; settings: Comamonas-cephaloridine units per mg of the final purified preparation
Description: The overnight culture of Comamonas terrigena B-996 on a nutrient agar slant was suspended in nutrient broth so as to give an optical cell density of 0.040 at 610 nm.
The seed suspension was added in a 1% amount to a molten agar medium containing 0.8% Kyokuto Nutrient Broth Powder (Kyokuto Pharmaceutical Industries Co.) and 1.0% Bacto-Agar (Difco Laboratories). Seven milliliters of the seeded molten agar medium were distributed in a Petri dish (9 cm in diameter) and solidified). This is defined as a Comamonas assay plate.
An 8 mm pulp disc was usually soaked with a sample solution to be assayed, left on a clean sheet of filter paper for a sufficient time to remove the excess solution and then transferred onto an assay plate. After incubation at 35° C. for 20 hours, the diameter of the observed inhibition zone was measured and compared with standard solutions of cephaloridine. The antimicrobial activity of the antibiotic PS-5 and related compounds is expressed as cephaloridine equivalent units/ml.
As well known to those skilled in the art, the assay standard curve varies to some extent, depending on the species of the test microorganisms. […]

SMILES: CCC1C(=O)N2C(C(=O)O)=C(SCCNC(C)=O)CC12 (single isomer, unassigned) [Antibiotic PS-5]
- Therapeutic effect in infected mice [1]: marked therapeutic effect
- Solubility in ethyl acetate and benzene ([2]; at pH above 4): substantially insoluble
- Solubility in water ([2]; water at pH 6 to 9): soluble
- zone of inhibition at 79.5 µg/mL ([3]; P5, 18 h, PS-5 79.5 μg/ml, read-out: Inhibition zone Without CER): 12.5 mm
- zone of inhibition at 100 µg/mL ([3]; P5, 18 h, PS-5 100 μg/ml, read-out: Inhibition zone Without CER): 13.7 mm
- zone of inhibition at 159 µg/mL ([3]; P5, 18 h, PS-5 159 μg/ml, read-out: Inhibition zone Without CER): 15.2 mm
- zone of inhibition at 318 µg/mL ([3]; P5, 18 h, PS-5 318 μg/ml, read-out: Inhibition zone Without CER): 18.5 mm
- Inhibition zone With CER ([3]; PS-5 79.5 μg/ml): 21.8 mm
- Inhibition zone With CER ([3]; PS-5 100 μg/ml): 22.0 mm
- Inhibition zone With CER ([3]; PS-5 159 μg/ml): 24.0 mm
- Inhibition zone With CER ([3]; PS-5 318 μg/ml): 25.2 mm
- zone of inhibition at 79.5 µg/mL ([4]; 18 h, PS-5 79.5 μg/ml, read-out: Inhibition zone Without CER): 14.8 mm
- zone of inhibition at 100 µg/mL ([4]; 18 h, PS-5 100 μg/ml, read-out: Inhibition zone Without CER): 16.8 mm
- zone of inhibition at 159 µg/mL ([4]; 18 h, PS-5 159 μg/ml, read-out: Inhibition zone Without CER): 17 mm
- zone of inhibition at 318 µg/mL ([4]; 18 h, PS-5 318 μg/ml, read-out: Inhibition zone Without CER): 21 mm
- Inhibition zone With CER ([4]; PS-5 79.5 μg/ml): 22.3 mm
- Inhibition zone With CER ([4]; PS-5 100 μg/ml): 23.3 mm
- Inhibition zone With CER ([4]; PS-5 159 μg/ml): 24.8 mm
- Inhibition zone With CER ([4]; PS-5 318 μg/ml): 26.1 mm
- Inhibition zone With CER ([5]; PS-5 79.5 μg/ml): 17.6 mm
- Inhibition zone With CER ([5]; PS-5 100 μg/ml): 18.0 mm
- Inhibition zone With CER ([5]; PS-5 159 μg/ml): 19.4 mm
- Inhibition zone With CER ([5]; PS-5 318 μg/ml): 21.9 mm
- zone of inhibition at 79.5 µg/mL ([5]; SP.E18, 18 h, PS-5 79.5 μg/ml, read-out: Inhibition zone Without CER): 15.1 mm
- zone of inhibition at 100 µg/mL ([5]; SP.E18, 18 h, PS-5 100 μg/ml, read-out: Inhibition zone Without CER): 16.1 mm
- zone of inhibition at 159 µg/mL ([5]; SP.E18, 18 h, PS-5 159 μg/ml, read-out: Inhibition zone Without CER): 18.2 mm
- zone of inhibition at 318 µg/mL ([5]; SP.E18, 18 h, PS-5 318 μg/ml, read-out: Inhibition zone Without CER): 21 mm
- zone of inhibition at 79.5 µg/mL ([6]; E9, 18 h, PS-5 79.5 μg/ml, read-out: Inhibition zone Without CER): 16 mm
- zone of inhibition at 100 µg/mL ([6]; E9, 18 h, PS-5 100 μg/ml, read-out: Inhibition zone Without CER): 17.4 mm
- zone of inhibition at 159 µg/mL ([6]; E9, 18 h, PS-5 159 μg/ml, read-out: Inhibition zone Without CER): 17.4 mm
- zone of inhibition at 318 µg/mL ([6]; E9, 18 h, PS-5 318 μg/ml, read-out: Inhibition zone Without CER): 22.5 mm
- Inhibition zone With CER ([6]; PS-5 79.5 μg/ml): 19.4 mm
- Inhibition zone With CER ([6]; PS-5 100 μg/ml): 21.6 mm
- Inhibition zone With CER ([6]; PS-5 159 μg/ml): 22.3 mm
- Inhibition zone With CER ([6]; PS-5 318 μg/ml): 24.6 mm
- remaining at 0.5 h ([7]; pH 3, pH 3.0, 60° C. for 30 minutes, percent of control): 0%
- remaining at 0.5 h ([7]; pH 4, pH 4.0, 60° C. for 30 minutes): 0%
- remaining at 0.5 h ([7]; pH 5, pH 5.0, 60° C. for 30 minutes): 9%
- remaining at 0.5 h ([7]; pH 6, pH 6.0, 60° C. for 30 minutes): 79%
- remaining at 0.5 h ([7]; pH 7, pH 7.0, 60° C. for 30 minutes): 76.5%
- remaining at 0.5 h ([7]; pH 8, pH 8.0, 60° C. for 30 minutes): 88.5%
- remaining at 0.5 h ([7]; pH 9, pH 9.0, 60° C. for 30 minutes): 82%

SMILES: CCC1C(=O)N2C(C(=O)OC(c3ccccc3)(c3ccccc3)c3ccccc3)=C(SCCNC(C)=O)CC12 (single isomer, unassigned) [Trityl PS-5]
- MIC [8]: 10 µg/mL (≈ 18.5 µM)
- MIC [9]: 8.7 µg/mL (≈ 16.1 µM)
- MIC [10]: 10 µg/mL (≈ 18.5 µM)
- Specific activity [11]: 10,800 CCU/mg
